In test [1] the test system is PC3. The test is described as follows: MTT test of overall cell growth, PC3 prostate cancer cells, normoxia or hypoxia. It is filed as cell-based, human. To be noted: for Selectivity: PC3, IC50 (normoxia)/IC50 (hypoxia 1% O2), if u.t.d., ratio of activity at 100 μM. Here is the method:
(§1) MTT tests were performed in order to rapidly, i.e. within 3 days, measure the effect of compounds of this invention on the overall cell growth. The test measured the number of metabolically active living cells that were able to transform the yellow product 3-(4,5-dimethylthiazol-2-yl)-2,5-diphenyl tetrazolium bromide (herein referred as MTT) into the blue product formazan dye by mitochondrial reduction. The amount of formazan obtained at the end of the experiment, measured by means of a spectrophotometer (Plate Reader Victor X4 Microplate reader (Perkin Elmer), is directly proportional to the number of living cells. Optical density determination thus enabled a quantitative measurement of the effect of the investigated compounds under control conditions (normoxia) as compared to the hypoxic conditions (0.1 or 1% O2) and/or untreated conditions.
(§2) Human umbilical vein endothelial cells (HUVEC) and six human cancer cell lines were used in the MTT tests. These cancer cell lines cover five histological cancer types including cervix (SiHa), breast (MCF-7 and MDA-MB231), prostate (PC3), glioma (U373), and colorectal (LoVo) cancers.
(§3) To perform the assay, cells were allowed to grow in 96-well microplates with a flat bottom following addition of an amount of 100 μl of cell suspension per well with 4,500 cells/well. Each cell line was seeded in its appropriate culture medium. HUVEC were cultured in a specific endothelial cell growth medium (ECACC, Sigma); SiHa cells in Glutamax-containing DMEM with 4.5 g/1 glucose (Invitrogen) supplemented with 10% Foetal Bovine Serum (PAA) and 1% penicillin+streptomycin mix (Invitrogen); MCF-7, MDA-MB-231, PC3, and LoVo cells in Glutamax-containing RPMI supplemented with 10% Foetal Bovine Serum (PAA) and 1% penicillin+streptomycin mix (Invitrogen) and U373 cells in Glutamax-containing DMEM (Invitrogen) with 5% Foetal Bovine Serum (PAA) and 1% penicillin+streptomycin mix (Invitrogen).
(§4) The detailed experimental procedure was the following: after a 24-hour period of incubation at 37° C., the culture medium was replaced by 100 μl of fresh medium in which the tested compound was previously dissolved, at the following concentrations: 10^−8 M, 5.10^−8, 10^−7, 5.10^−7, 10^−6, 5.10^−6, 10^−5, 5.10^−5 and 10^−[…]. Each experiment was performed in sestuplicates (6 times).
(§5) Cells were then incubated under normoxia in a Binder incubator (the O2 level corresponding to the concentration in the ambient air), or in a Ruskin hypoxia workstation under either 0.1% O2 (v/v) or 1% O2 (v/v). Under both conditions, the atmosphere was humidified and the CO2 concentration was fixed at 5 vol. %.
(§6) After 72 hours of incubation at 37° C. under normoxic or hypoxic conditions, with or without the compound to be tested, the medium was replaced by 100 μl of HBSS (without phenol red) containing MTT at a concentration of 0.5 or 1 mg/ml. The micro-wells were subsequently incubated during 3 hours and a half at 37° C. and centrifuged at 1300 rpm during 10 minutes. Medium was removed and formazan crystals formed were dissolved in 100 μl DMSO. The micro-wells were shaken for 5 minutes and read on a spectrophotometer at wavelengths of 570 nm (maximal formazan absorbance).
(§7) For each experimental condition, the mean optical density was calculated, allowing the determination of the percentage of living cells in comparison to the control.

The test system of test [2] is Human umbilical vein endothelial cells (HUVEC). The test is described as follows: MTT test of overall cell growth, endothelial cells, normoxic or hypoxic conditions. It is filed as cell-based. Particulars: for Selectivity: if u.t.d., ratio of activity at 100 μM. The method, then: as §1, §2, §3, §4, §5, §6, §7
On the technique in general: Tetrazolium dyes change colour on reduction, which living cells bring about.

Test [3] deals with MCF-7. The test is described as follows: MTT test of overall cell growth, MCF-7 breast cancer cells, normoxia or hypoxia. It is filed as cell-based, human. To be noted: for Selectivity: MCF-7, IC50 (normoxia)/IC50 (hypoxia 1% O2), if u.t.d., ratio of activity at 100 μM. The method, then:
as §1, §2, §3, §4, §5, §6, §7

Test [4] relates to U373. The test is described as follows: MTT test of overall cell growth, U373 glioma cells, normoxia or hypoxia. It is filed as cell-based, human. Particulars: for Selectivity: U373, IC50 (normoxia)/IC50 (hypoxia 1% O2), if u.t.d., ratio of activity at 100 μM. Here is the method:
as §1, §2, §3, §4, §5, §6, §7

Test [5] relates to MDA-MB-231. The test is described as follows: MTT test of overall cell growth, MDA-MB-231 breast cancer cells, normoxia or hypoxia. It is filed as cell-based, human. Particulars: for Selectivity: MDA-MB-231, IC50 (normoxia)/IC50 (hypoxia 1% O2), if u.t.d., ratio of activity at 100 μM. Here is the method: as §1, §2, §3, §4, §5, §6, §7
Test [6] has as its system LoVo. The test is described as follows: MTT test of overall cell growth, LoVo colorectal cancer cells, normoxia or hypoxia. The test is classed as cell-based, human. To be noted: for Selectivity: IC50 (normoxia)/IC50 (hypoxia 1% O2), if u.t.d., ratio of activity at 100 μM. The method, then: as §1, §2, §3, §4, §5, §6, §7
Test [7] has as its system siHa. The test is described as follows: MTT test of overall cell growth, SiHa cervix cancer cells, normoxia or hypoxia. The test is classed as cell-based, human. Particulars: for Selectivity: IC50 (normoxia)/IC50 (hypoxia 1% O2), if u.t.d., ratio of activity at 100 μM. Here is the method: as §1, §2, §3, §4, §5, §6, §7
The mark [8] stands for this setting: IC50 (normoxia)/IC50 (hypoxia 0.1%).
Where [9] appears, read: IC50 (normoxia)/IC50 (hypoxia 1%).
Where [10] appears, read: Homo sapiens, hypoxia 1% O2, 72 h, read-out: IC50 (μM) Hypoxia 1% O2.
Where [11] appears, read: Homo sapiens, normoxia, 72 h, read-out: IC50 (μM) Normoxia.
The mark [12] stands for this setting: PC3, hypoxia 1% O2, 72 h, read-out: IC50 (μM) Hypoxia 1% O2.
Where [13] appears, read: PC3, normoxia, 72 h, read-out: IC50 (μM) Normoxia.
Setting [14] is: hypoxia 0.1% O2, 72 h, read-out: IC50 (μM) Hypoxia 0.1%.
Where [15] appears, read: hypoxia 1% O2, 72 h, read-out: IC50 (μM) Hypoxia 1%.
The mark [16] stands for this setting: normoxia, 72 h, series compared with hypoxia 0.1%, read-out: IC50 (μM) Normoxia.
Setting [17] is: normoxia, 72 h, series compared with hypoxia 1%, read-out: IC50 (μM) Normoxia.
[18] abbreviates: MCF-7, hypoxia 1% O2, 72 h, read-out: IC50 (μM) Hypoxia 1% O2.
The mark [19] stands for this setting: MCF-7, normoxia, 72 h, read-out: IC50 (μM) Normoxia.
[20] abbreviates: U373, hypoxia 1% O2, 72 h, read-out: IC50 (μM) Hypoxia 1% O2.
[21] abbreviates: U373, normoxia, 72 h, read-out: IC50 (μM) Normoxia.
Where [22] appears, read: MDA-MB-231, hypoxia 1% O2, 72 h, read-out: IC50 (μM) Hypoxia 1% O2.
Where [23] appears, read: MDA-MB-231, normoxia, 72 h, read-out: IC50 (μM) Normoxia.
Setting [24] is: hypoxia 1% O2, 72 h, read-out: IC50 (μM) Hypoxia 1% O2.
The mark [25] stands for this setting: normoxia, 72 h, read-out: IC50 (μM) Normoxia.

Like-named read-outs stand apart in the source and are kept apart here.

For 3 compounds, IC50 and Selectivity results are on record in patent US9181265B2, “Substituted 2,3-dihydro-1H-benzo[a]pyrano[2,3-c]phenazines as anti-angiogenic and anti-cancer agents” (UNIVERSITE CATHOLIQUE DE LOUVAIN, priority 2010, dated 2015).

The IC50 is the midpoint of a concentration-inhibition curve. As for `C[C@H]1CC[C@H]2[C@H](C1)c1c(c3ccccc3c3nc4cc(C(=O)N5CCOCC5)ccc4nc13)OC2(C)C` (racemic) [Compound 12], the IC50 came out at 1.31 µM in test [1] (Homo sapiens, PC-3, PC3, hypoxia 1% O2, 72 h, read-out: IC50 (μM) Hypoxia 1% O2); 14.7 µM in test [1] (Homo sapiens, PC-3, PC3, normoxia, 72 h, read-out: IC50 (μM) Normoxia); 0.14 µM in test [2] (Homo sapiens, 72 h, hypoxia 0.1% O2, 72 h, read-out: IC50 (μM) Hypoxia 0.1%); 0.4 µM in test [2] (Homo sapiens, 72 h, hypoxia 1% O2, 72 h, read-out: IC50 (μM) Hypoxia 1%); 8.27 µM in test [2] (Homo sapiens, 72 h, normoxia, 72 h, series compared with hypoxia 0.1%, read-out: IC50 (μM) Normoxia); 5.65 µM in test [2] (Homo sapiens, 72 h, normoxia, 72 h, series compared with hypoxia 1%, read-out: IC50 (μM) Normoxia). Besides, the IC50 in test [3] (Homo sapiens, MCF7, MCF-7, hypoxia 1% O2, 72 h, read-out: IC50 (μM) Hypoxia 1% O2) worked out at 1.45 µM; in test [3] (Homo sapiens, MCF7, MCF-7, normoxia, 72 h, read-out: IC50 (μM) Normoxia) it was 8.07 µM; in test [4] (Homo sapiens, U373 MG, U373, hypoxia 1% O2, 72 h, read-out: IC50 (μM) Hypoxia 1% O2), 0.14 µM; in test [4] (Homo sapiens, U373 MG, U373, normoxia, 72 h, read-out: IC50 (μM) Normoxia), 10.6 µM; in test [5] (Homo sapiens, MDA-MB-231, hypoxia 1% O2, 72 h, read-out: IC50 (μM) Hypoxia 1% O2) it was 1.27 µM; in test [5] (Homo sapiens, MDA-MB-231, normoxia, 72 h, read-out: IC50 (μM) Normoxia), 30.3 µM. The concentration for half-maximal inhibition (IC50) stood at 1.31 µM in test [6] (setting [10]), 9.69 µM in test [6] (setting [11]), 1.13 µM in test [7] (setting [10]) and 19.8 µM in test [7] (setting [11]). In addition, the Selectivity was 11.23 in test [1]; 58 in test [2] (setting [8]); 14 in test [2] (setting [9]); 5.56 in test [3]; 75.00 in test [4]; 23.81 in test [5]. Moreover, the Selectivity is recorded as 7.38 in test [6] and 17.50 in test [7].
In the case of `CC1CCC2C(C1)c1c(c3ccccc3c3nc4ccc(C(=O)NC(CO)Cc5ccccc5)cc4nc13)OC2(C)C` (mixture of isomers) [Compound 17′], the half-maximal inhibitory concentration (IC50) turned out to be 11.6 µM in test [1] (setting [12]); 15.2 µM in test [1] (setting [13]); 0.07 µM in test [2] (setting [14]); 0.36 µM in test [2] (setting [15]); 17 µM in test [2] (setting [16]); 5.72 µM in test [2] (setting [17]). The IC50 in test [3] (setting [18]) was 12.5 µM; in test [3] (setting [19]) it was 17.2 µM; in test [4] (setting [20]) it was 1.34 µM; in test [4] (setting [21]), 11.6 µM; in test [5] (setting [22]), 11.1 µM; in test [5] (setting [23]), 59.9 µM. Besides, the IC50 turned out to be 11.4 µM in test [6] (setting [24]), 18.8 µM in test [6] (setting [25]), 10.7 µM in test [7] (setting [24]) and 102 µM in test [7] (setting [25]). Moreover, the Selectivity stood at 1.31 in test [1]; 230 in test [2] (setting [8]); 16 in test [2] (setting [9]); 1.37 in test [3]; 8.67 in test [4]; 5.40 in test [5]. Besides, the values for the Selectivity in test [6] and in test [7] were 1.64 and 9.50, respectively.
For `C[C@H]1CC[C@H]2[C@H](C1)c1c(c3ccccc3c3nc4cc(C(=O)N[C@@H](CO)Cc5ccccc5)ccc4nc13)OC2(C)C` [Compound 17], the IC50 in test [1] (setting [12]) worked out at 11.1 µM; in test [1] (setting [13]), 10.4 µM; in test [2] (setting [14]), 0.05 µM; in test [2] (setting [15]), 0.63 µM; in test [2] (setting [16]), 6.25 µM; in test [2] (setting [17]), 5.18 µM. The IC50 worked out at 11.1 µM in test [3] (setting [18]); 12.2 µM in test [3] (setting [19]); 1.23 µM in test [4] (setting [20]); 6.97 µM in test [4] (setting [21]); 11.4 µM in test [5] (setting [22]); 13.4 µM in test [5] (setting [23]). Moreover, the IC50 in test [6] (setting [24]) is 9.47 µM; in test [6] (setting [25]), 9.83 µM; in test [7] (setting [24]), 10.5 µM; in test [7] (setting [25]) it was 75 µM. Moreover, the Selectivity worked out at 0.94 in test [1]; 134 in test [2] (setting [8]); 8 in test [2] (setting [9]); 1.10 in test [3]; 5.65 in test [4]; 1.17 in test [5]. Also, the Selectivity in test [6] is 1.04; in test [7], 7.12.
